According to patent US20130023553A1, “PEGYLATED OPIOIDS WITH LOW POTENTIAL FOR ABUSE AND SIDE EFFECTS” (Nektar Therapeutics, priority 2010, published 2013):
Entries after “also recorded” stand apart in the source; their conditions may differ.

How the values were obtained:
Sprague-Dawley rats [1] = assay: Abuse liability: three-day substitution test in rats trained to self-administer cocaine; details: i.v. self-administration
[2] = Pharmacokinetics following oral (PO) dosing; assay type: in vivo, Sprague-Dawley rats; details: male, Sprague-Dawley, rat, plasma
From the text: (§1) There were 3 rats/group. All animals were food fasted overnight. […] The predose sample was collected from the JVC.
(§2) Following the last collection point, the animals were euthanized.

Sprague-Dawley rats [3] = assay: Abuse liability: progressive ratio test in rats trained to self-administer cocaine; assay type: in vivo; details: for reinforcing behavior, progressive ratio: all doses tested
Procedure: In the three-day rat substitution tests, rats trained to self-administer cocaine were exposed to saline or test article via intravenous bolus infusions for one hour sessions on three consecutive days.
The rate of self-administration is determined not only by reinforcing effects of drug but also by the direct effects of the drug on motor behavior. To measure reinforcing effects in a quantitative way, a procedure was utilized in which responding was determined by reinforcing effects uncontaminated with other drug effects. […] See, e.g., Griffiths R R, Brady J V, Bradford L D. Advances in Behavioral Pharmacology (Vol 2).
Under this schedule, the animal responds on the lever for delivery of test article. For each subsequent drug delivery the total number of responses emitted on the lever required for drug delivery was incremented upward using a logarithmic (base e) scale using the following equation:
Response requirement=5*e^(response increment*0.2)−5
The progressive “break point” is defined as the highest number of responses emitted by the animal to earn a single reinforcer delivery of drug or vehicle. This break point is used as a behavioral marker of how much work will be expended by an experimental subject to earn a single reinforcer delivery. The amount of work expended to earn a single reinforcer is used to compare the efficacy of drug deliveries with respect to the hedonic valence induced by the drug injection with the assumption that the subjective hedonic valence of a reinforcer determines its abuse liability.

human mu opioid receptor = biological target: T1, human mu opioid receptor (Homo sapiens, UniProt P35372); assay: cell-based
T1 construct: expressed in transfected cells; host or cells: CHO cells
T1 sequence (P35372 whole entry): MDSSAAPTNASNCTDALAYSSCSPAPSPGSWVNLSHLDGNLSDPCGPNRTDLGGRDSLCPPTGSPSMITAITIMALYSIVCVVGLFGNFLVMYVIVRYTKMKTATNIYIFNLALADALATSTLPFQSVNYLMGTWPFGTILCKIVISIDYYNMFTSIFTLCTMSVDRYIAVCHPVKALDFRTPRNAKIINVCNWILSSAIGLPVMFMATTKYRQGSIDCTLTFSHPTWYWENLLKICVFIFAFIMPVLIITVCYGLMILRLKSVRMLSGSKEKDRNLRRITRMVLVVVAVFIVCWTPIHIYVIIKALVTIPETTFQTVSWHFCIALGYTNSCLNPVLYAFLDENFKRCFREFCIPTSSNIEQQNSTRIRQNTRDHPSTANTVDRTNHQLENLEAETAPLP

[4] = Pharmacokinetics following intravenous (IV) dosing; assay type: in vivo, Sprague-Dawley rats; details: male, Sprague-Dawley, rat, plasma, hydroxycodone series, 1 mg/kg IV, Mean ± SD
From the text: as §1, §2

Sprague-Dawley male rats = assay: Motor coordination (sedation) on the rotarod treadmill; assay type: in vivo; details: for sedation compared to oxycodone: equianalgesic dose
Procedure: The following studies were conducted to evaluate the effect of orally administered PEG-6-O-hydroxycodone on motor coordination (i.e., sedation) in rats using the rat rotarod Treadmill. Motor coordination was evaluated at 0.5 h and 1 h post-dose.
The rats weighed between 240 to 280 grams on the day of study. Rats were not fasted prior to dosing.
Animals were trained to run on the treadmill for 2 consecutive days prior to the day of study. Animals were trained at a constant speed of 10 RPM and were given as many trials as necessary until they were able to stay on the rotarod for 300 seconds. Rats that were able to stay on the rod for 300 seconds were considered trained. On the day of study, animals were placed on the rotarod treadmill at 0, 30, and 60 minutes post dose. The treadmill was set at a constant speed of 4 RPM for 15 seconds, at this point the timer was started (T=0). After this 15 second period, the rotarod was set to accelerate from 4-40 RPM over a five minute period (using the built in program of the rotarod). The time (in seconds) that each animal stopped running and tripped the plate was recorded as the animal's run time. Animals that ran for 300 seconds were taken of the treadmill and 300 seconds was recorded as the run time.
The objective of this study was to evaluate the effect of 10, 30, 100, and 300 mg/kg of PEG-6-O-hydroxycodone on motor coordination in rats using the rotarod treadmill. All doses were administered orally and evaluated at 0.5 h and 1 h post-dose.

[5] = listed as mPEG6-O-hydroxycodone
[6] = hydroxycodone series, 5.0 mg/kg oral, Mean ± SD

## COCCOCCOCCOCCOCCOCCOC1CCC2(O)C3Cc4ccc(OC)c5c4C2(CCN3C)C1O5 (stereo not drawn) [α-6-mPEG6-O-hydroxycodone, α-6-mPEG6-O-oxycodone]
Sprague-Dawley rats [1]
  reinforcing behavior, three-day substitution: no reinforcing behavior was observed; also recorded: lack of reinforcing behavior
Sprague-Dawley rats [1]; [5]
  reinforcing behavior, three-day substitution: no behavioral evidence of positive reinforcement
[2]; po, 5 mg/kg
  bioavailability: 55.3%
[2]; [6]
  AUC: 585 ng·h/mL
  MRT last: 2.57 h
[2]; hydroxycodone series, 5.0 mg/kg oral, Mean ± SD, * n = 2
  AUC(0-inf): 603 ng·h/mL
[2]; hydroxycodone series, 5.0 mg/kg oral, Mean ± SD, * n = 2, read-out: T1/2(z)
  half-life: 1.42 ± 0.131 h
[2]; hydroxycodone series, 5.0 mg/kg oral, Mean ± SD, read-out: Cmax
  Cmax: 171 ± 76.6 ng/mL
[2]; hydroxycodone series, 5.0 mg/kg oral, median value, read-out: Tmax (converted)
  Tmax: 2 h
Sprague-Dawley rats [3]; 1.0 mg/kg/injection
  progressive ratio break point: 21
Sprague-Dawley rats [3]
  reinforcing behavior, progressive ratio: no reinforcing behavior was observed; also recorded: no reinforcing behaviour was exhibited
Sprague-Dawley rats [3]; [5]
  reinforcing behavior, progressive ratio: showed no reinforcing properties and behaved like saline
Human mu opioid receptor; maximal response at the highest tested concentration, read-out: % max effect, mu opioid receptor
  Emax: 102%
Human mu opioid receptor; read-out: EC50, mu opioid receptor
  EC50: 12.5 µM
[4]
  AUC: 210 ng·h/mL
  AUC(0-inf): 218 ng·h/mL
  MRT last: 0.795 h
  clearance: 77.9 ± 14.4 mL/min/kg
[4]; read-out: Cmax
  Cmax: 445 ± 83.6 ng/mL
[4]; read-out: T1/2(z)
  half-life: 1.04 ± 0.0862 h
[4]; read-out: Vss
  Vd: 4.68 ± 0.938 L/kg
Sprague-Dawley male rats; 300 mg/kg oral, 0.5 h and 1 h post-dose
  motor impairment, overall: slight motor impairment
Sprague-Dawley male rats; 10, 30, 100 mg/kg oral
  rotarod performance, overall: failed to impair rotarod performance
Sprague-Dawley male rats; listed as PEG-6-O-hydroxycodone
  sedation compared to oxycodone: produces less sedation than the parent opioid
Sprague-Dawley male rats; [5]
  sedation compared to oxycodone: less sedation
Sprague-Dawley male rats; initial study, 30 mg/kg oral, 0.5 h post-dose
  time spent on the rotarod compared to saline control: showed a reduction in time spent on the rotarod
Sprague-Dawley male rats; initial study, 10, 100 or 300 mg/kg oral, 0.5 h and 1 h post-dose
  rotarod performance compared to saline control: did not exhibit impaired rotarod performance
Sprague-Dawley male rats; repeated study, 300 mg/kg oral, 0.5 h and 1 h post-dose
  time spent on rotarod compared to saline control: showed a reduction in time spent on rotarod
Sprague-Dawley male rats; repeated study, 10, 30 or 100 mg/kg oral, 0.5 h and 1 h post-dose
  rotarod performance compared to saline control: did not demonstrate impaired rotarod performance
